Patent US20180153993A1, “COMPOSITIONS AND METHODS FOR TREATMENT AND PREVENTION OF CARDIOVASCULAR DISEASES” (The Chinese University of Hong Kong, priority 2016, published 2018)

What was measured:
YAP = YAP phosphorylation (Ser127, pYAP) by immunoblotting in HUVECs; type: cell-based, human
Procedure: Cells or tissues were homogenized in cold RIPA lysis buffer supplemented with complete protease inhibitors cocktail and phosSTOP phosphatase inhibitor (Roche). The protein concentration was determined using Bradford Assay (Bio-Rad). Ten micrograms of protein were resolved by SDS-polyacrylamide gel electrophoresis and transferred to the PVDF membrane (Bio-Rad). Target protein was detected using specific primary antibody. Bound antibodies were detected by horseradish-peroxidase-conjugated secondary antibody and visualized by enhanced chemiluminescence (Cell Signaling Technology). Experiments were repeated three times and the target protein level was quantified by imageJ and normalized to internal control (or pYAP was normalized by total YAP) (FIGS. 10 and 11).
(§1) HUVECs and human aortic ECs were purchased from Lonza (EGM, Clonetics, Lonza, Walkersville, Md., USA). Lonza guarantees that the cells express CD31/105, von Williebrand Factor VIII, and are positive for acetyated low density lipoprotein uptake. Mycoplasma contamination was not tested during the experiments. HUVECs maintained in EGM supplemented with EGS and FBS at 37° C. in an incubator with 95% humidified air and 5% CO2 and passed every 3 days. Cells within seven passages were used in in vitro study.

RhoA = assay: GST-RBD pull-down for active RhoA (GTP-RhoA) detection; type: cell-based, human; settings: MnCl2 treatment
Procedure: GST-RBD recombinant protein was purified from BL21 (DE3) Escherichia coli and affinity conjugated to glutathione sepharose beads (Pharmacia). For GST affinity pull-down, 10^7 cells were lysed in 1 ml Weak Lysis Buffer (Beyotime) supplemented with protease inhibitors (Roche). Cell lysates were centrifuged at 15,000 g at 4° C. for 20 min to remove cell debris. Cell lysates were incubated in sepharose beads conjugated with 1 μg GST-RBD and incubate at 4° C. for 2 h with constant agitation, and precipitated by centrifugation at 1,000 r.p.m. for 10 min. After three washes, beads were collected by centrifugation and boiled in 2× SDS loading buffer for 5 min. The active RhoA was determined by western blotting.

YAP/TAZ [1] = assay: YAP/TAZ nuclear exportation in HUVECs; type: cell-based, human
YAP/TAZ [2] = assay: YAP/TAZ reporter (8xGTIIC-luc) gene activity in HUVECs; type: cell-based, human
ApoE−/− mice = assay: Oral administration of MnCl2 in ApoE-/- mice on Western diet, Oil Red O staining of atherosclerotic plaques; type: in vivo, mouse; settings: Western diet 12 weeks, MnCl2 oral in drinking water 5 mg/kg body weight
Procedure: ApoE^−/− mice (male, 12 weeks old) were fed a Western diet, and MnCl2 was administered through voluntary water consumption. Water consumption rate was predetermined by monitoring the volume of water remained. MnCl2 was supplemented to drinking water to achieve 5 mg/kg body weight. Mice body weight and water consumption were adjusted weekly to adapt to the change of body weight and water consumption. After feeding on the Western diet for 3 months, the mice were killed and the atherosclerotic plaque formation was determined by Oil Red O staining.
The ApoE^−/− mice were killed by CO2 asphyxiation. Mouse aortas were dissected in cold PBS and cut open to expose the atherosclerotic plaques. After fixation in 4% formaldehyde for 16 h at 4° C., the tissues were first rinsed in water for 10 min and then in 60% isopropanol. The aortas were stained with Oil Red O for 15 min with gentle shaking, and rinsed again in 60% isopropanol and then in water for three rinses. The samples were fixed on the cover slides with the endothelial surface facing upwards. The images were recorded using an HP Scanjet G4050. The plaque areas were determined using National Institutes of Health ImageJ software and calculated by expressing the plaque area relative to the total vascular area.

YAP/TAZ [3] = assay: YAP/TAZ reporter gene activity assay of anti-atherosclerotic agents (YAP/TAZ inhibition test); type: cell-based, human; settings: working concentrations of Table 1: apelin 100 nM, ApoA1 10 μg/mL, niacin 3 to 5 mM, statins 1-10 μM
Excerpt: Adenovirus-mediated reporter system and immortalized human aortic endothelial cells (HAECs) are used for drug screening. […] Endothelial cells express specific receptors that determine their unique response to different drug treatment. Therefore, it is necessary to use endothelial cells to study the YAP/TAZ inhibitory effect of lead drugs. Since primary endothelial cells from different donors contain distinct genetic background, which might cause significant variation between different batches of experiments, the immortalized human aortic endothelial cells are used. However, endothelial cells are difficult to be transformed, which could delay research progress and increase cost. To overcome this problem, the inventors have generated adenoviral expressing YAP/TAZ luciferase reporter and renilla internal control. The entire screening process can be completed in two days.

YAP/TAZ [4] = assay: YAP/TAZ target gene expression (CTGF, CYR61), quantitative real-time PCR in HUVECs; type: cell-based, human; settings: CTGF and CYR61
Procedure: RNA was extracted by using TRIzol Reagent (Thermo) according to the manufacturer's protocol. cDNA was synthesized using a High-Capacity cDNA Reverse Transcription Kit (Thermo). Quantitative PCR was performed using SYBR Select (Thermo) following the manufacturer's protocol. GAPDH was used as the internal control. Primers used for quantitative real-time PCR were included in Table 2.
as §1

[Cl][Mn][Cl] [MnCl2]
YAP phosphorylation (pYAP) (YAP; MnCl2 0.5 mM): increased pYAP | GTP-RhoA (active RhoA) (RhoA): GTP-RhoA suppression | YAP/TAZ nuclear exportation (YAP/TAZ [1]): induced YAP/TAZ nuclear exportation | YAP/TAZ reporter gene activity (YAP/TAZ [2]): reduced YAP/TAZ reporter gene activity | atherosclerotic plaque formation (ApoE−/− mice): reduced plaque formation

ApoA1
YAP/TAZ activity (reporter gene) (YAP/TAZ [3]): suppressed YAP/TAZ activity

Apelin
YAP/TAZ activity (reporter gene) (YAP/TAZ [3]): suppressed YAP/TAZ activity

GRGDSP
YAP phosphorylation (pYAP) (YAP; GRGDSP 100 μg ml−1): increased pYAP | YAP/TAZ target gene expression (YAP/TAZ [4]): suppressed YAP/TAZ target gene expression

O=C(O)c1cccnc1 [niacin, Nicotinic acid]
YAP/TAZ activity (reporter gene) (YAP/TAZ [3]): suppressed YAP/TAZ activity
